Measured values reported in US20250241878A1, “TYROSINE AND RESVERATROL DERIVATIVES AS NOVEL MODULATORS OF CELLULAR SERINE ADP-RIBOSYLATION” (UNIVERSITY OF SOUTH CAROLINA, priority 2022, published 2025).

Key:
[1] = system: histone H3-Ser10-ADP-ribosylation; experiment: Histone H3 serine-ADP-ribosylation immunoblot in cortical neurons; assay type: cell-based, rat; details: compound alone
Protocol: FIG. 5B presents representative immunoblots and quantification of histone H3-Ser10-ADP-ribosylation levels in cortical neurons (DIV9) using anti-H3-Ser10-ADPR antibody after treatment with D-tyrosine (2.5 and 5 mM).
(§1) Cultured neurons (DIV 9-10) were washed once with cold 1×PBS and lysed in cell lysis buffer (20 mM Tris-HCl (pH 7.5), 150 mM NaCl, 1 mM Na2EDTA, 1 mM EGTA, 1% Triton™, 2.5 mM sodium pyrophosphate, 1 mM beta-glycerophosphate, 1 mM Na3VO4, 1 μg/ml leupeptin supplemented with protease inhibitor). The lysates were centrifuged at 10,000 RPM for 15 mins at 4° C. to separate the chromatin-bound and soluble fractions. Lysates were quantified using Bio-Rad™ Protein Assay and equal amounts of protein were loaded onto a 4 to 12% gradient gel (Invitrogen™ NuPAGE™). Protein was transferred from the gel to 0.2 μm NC membranes at 25 V for 10 mins using transfer stacks (iBlot™ 2-Invitrogen™) and blocked with 5% non-fat milk in TBST (10 mM Tris-HCl pH 8.0, 150 mM NaCl, 0.01% Tween-20) for 1 hr before application of primary antibodies. Primary and secondary antibodies were incubated overnight at 4° C. and for 1 hr at room temperature, respectively. Immobilon® ECL Ultra Western HRP Substrate (WBULS0500, Millipore™) and a luminescent image analyzer (ChemiDoc™ Imaging System, Bio-Rad™) were used to detect proteins. Quantification of western blots was done using ImageJ (Version 1.53c).

PheRSα/β = PheRSα/β protein levels in cortical neurons (Western blot); assay type: cell-based, rat
Protocol: Primary cortical neurons were dissected from E18 Sprague Dawley rat pups in Hibernate E (BrainBits®) and dissociated using the Neural Tissue Dissociation kit (Miltenyi Biotec). Minced cortices were incubated in a pre-warmed enzyme mix at 37° C. for 15 min; tissues were then triturated and strained using a 40 μm cell strainer. After washing and centrifugation, neurons were seeded in 50 μg/ml poly-D-Lysine (Sigma-Aldrich) coated tissue culture plates. NBActive-1 medium (BrainBits®) supplemented with 100 U/ml of Penicillin-Streptomycin (Life Technologies™), 2 mM L-Glutamine (Life Technologies™), and 1×N21 supplement (R&D Systems™) was used as culture medium. For preparation of culture medium containing reduced tyrosine, the components of NBActive-1 medium were altered to combined with a reduced concentration of tyrosine, as mentioned in Table 1, and was supplemented with 100 U/ml of Penicillin-Streptomycin (Life Technologies™), 2 mM L-Glutamine (Life Technologies™), and 1×N21 supplement (R&D Systems™) to obtained culture medium with reduced tyrosine. Control (non-targeting), TyrRS, and PARP1 siRNAs were obtained from Invitrogen™ (#AM4635, s443, and s130207, respectively). Rat cortical neurons at 5 DIV were transfected with 75 nM control or TyrRS siRNA using DharmaFECT™ 3 Transfection Reagent. A second transfection was done two days later using 75 nM of TyrRS siRNA, followed by cell collection or assays after another 48 hr. For PARP1 siRNA, neurons at 7 DIV were transfected with 75 nM siRNA for both control and PARP1 siRNA.
as §1
The various compounds used for treatments and their stock concentrations in Table 4.

[2] = molecular target: T1, interaction of eEF2 with TyrRS and PP2A (Rattus norvegicus, UniProt Q4KM49); experiment: eEF2 immunoprecipitation probed for PP2A and TyrRS; assay type: cell-based; details: compound alone
T1 construct: endogenous in cells; host or cells: primary rat (E18 Sprague Dawley) cortical neurons
T1 sequence (Q4KM49 1-528): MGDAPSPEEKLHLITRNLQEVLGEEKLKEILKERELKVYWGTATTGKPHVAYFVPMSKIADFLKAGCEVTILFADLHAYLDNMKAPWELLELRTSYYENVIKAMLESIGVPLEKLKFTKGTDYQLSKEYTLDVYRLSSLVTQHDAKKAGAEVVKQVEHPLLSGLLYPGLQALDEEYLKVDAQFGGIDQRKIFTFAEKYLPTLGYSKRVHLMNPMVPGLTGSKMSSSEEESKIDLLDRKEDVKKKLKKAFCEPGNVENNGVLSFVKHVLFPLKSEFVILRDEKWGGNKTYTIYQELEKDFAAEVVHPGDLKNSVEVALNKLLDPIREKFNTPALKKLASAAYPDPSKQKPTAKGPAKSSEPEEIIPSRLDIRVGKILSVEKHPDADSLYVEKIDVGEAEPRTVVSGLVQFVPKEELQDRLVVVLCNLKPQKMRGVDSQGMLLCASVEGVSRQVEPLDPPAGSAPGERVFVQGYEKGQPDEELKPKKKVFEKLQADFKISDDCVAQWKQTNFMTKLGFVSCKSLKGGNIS
Excerpt: Immunoprecipitated eEF2 was probed for its interaction with PP2A and TyrRS using their specific antibodies.

neuronal chromatin = experiment: Chromatin fraction immunoblots of cortical neurons; assay type: cell-based, rat; details: compound alone
Protocol: as §1

cortical neurons = experiment: Comet assay; assay type: cell-based, rat; details: for DNA damage, percentage (%) of DNA in the comet tail: compound alone
Protocol: The cells were harvested with a cell scraper using chilled PBS and counted. The comet assay (Trevigen®, Gaithersburg, MD) was performed according to standard methods using alkaline conditions. Electrophoresis was carried out at the rate of 1.0 V/cm for 20 min. The slides were removed from the electrophoresis chamber, washed twice in deionized water for 5 min and immersed in 70% ethanol for 5 min. Subsequently, the slides were dried at 37° C. for 30 min, DNA was stained with 50 μL of SYBR™ Gold dye (Fisher Scientific, 1:10000 in Tris-EDTA buffer, pH 7.5) for 20 min in the dark at room temperature and then analyzed using an epifluorescent microscope at 10× magnification. The images were scored for comet parameters, such as tail length and tail moment (product of % of DNA in the tail and tail length), using the TriTek CometScore™ Freeware v1.5 image analysis software.

8-oxo-dG = 8-oxo-dG immunofluorescence in cortical neurons; assay type: cell-based, rat; details: for 8-oxo-dG (oxidative DNA damage marker): compound alone
Protocol: Cultured cortical neurons (DIV 9-10) were fixed in 4% formaldehyde for 15 min, followed by permeabilization and blocking for 30 min in 5% BSA (PBS) and 0.1% Tween™ 20 at room temperature. Incubation with primary antibodies was done at 4° C. overnight. The names and dilutions of the primary antibodies used for IF are described in Table 3. Secondary antibodies were incubated for 1 hr at room temperature. Secondary antibodies used were Alexa Fluor® 647 (anti-chicken), Alexa Fluor® 555 (anti-mouse), Alexa Fluor® 488 (anti-rabbit) from Invitrogen™ at 1:1000 dilution. Coverslips were then mounted using DAPI (4′,6-diamidino-2-phenylindole)-supplemented mounting medium, ProLong™ Gold Antifade (Invitrogen™) and imaged with Leica DMI6000 epifluorescent microscope using oil immersion 63×/NA 1.4 objective. The quantification for total protein levels in neurons was done using ImageJ (version 1.53c), and imaging parameters were matched for exposure, gain, and offset.

Compound	histone H3 serine-ADP-ribosylation [1]	PheRSβ and PheRSα levels (PheRSα/β; low concentration cis-RSV)	interaction of eEF2 with TyrRS and PP2A [2]	PARylated proteins in the chromatin fraction (neuronal chromatin)	TyrRS in the chromatin fraction (neuronal chromatin)	association of PARP1 with the chromatin (neuronal chromatin)	recruitment of ARH3 to the chromatin (neuronal chromatin)	recruitment of FEN1 to the chromatin (neuronal chromatin)	recruitment of PARP2, HPF1 and OGG1 to the chromatin (neuronal chromatin)	effect on DNA damage caused by Tyr (cortical neurons; combination with Tyr)	DNA damage, percentage (%) of DNA in the comet tail (cortical neurons)	effect on tyrosine-induced accumulation of 8-oxo-dG (8-oxo-dG; combination with tyrosine)	PheRSα levels (PheRSα/β; high concentration trans-RSV)	PheRSβ levels (PheRSα/β; high concentration trans-RSV)	8-oxo-dG (oxidative DNA damage marker) (8-oxo-dG)	PheRSβ levels (PheRSα/β; compound alone)	levels of PheRSβ (PheRSα/β; second statement of the same sentence, see doubts)
Oc1ccc(/C=C\c2cc(O)cc(O)c2)cc1 [cis-RSV, cis-resveratrol]	stimulated serine-ADP-ribosylation	increased their levels	facilitated the interaction of eEF2 with TyrRS and PP2A	activated the de-ADP-ribosylation of the chromatin fraction	higher levels of TyrRS	resulted in its removal from the chromatin	differential effects on the recruitment of ARH3 to the chromatin	decreased the recruitment of FEN1	facilitated the recruitment of PARP2 along with other DNA repair factors such as HPF1 and OGG1 to the chromatin	attenuated the increase in DNA damage caused by Tyr	did not cause an increase in percentage of DNA in the comet tail	rescued tyrosine-induced accumulation of γ-H2AX and 8-oxo-dG	–	–	–	–	–
Oc1ccc(/C=C/c2cc(O)cc(O)c2)cc1 [trans-RSV, trans-resveratrol]	inhibiting histone H3 serine-ADP-ribosylation	–	decreased their interactions	increased the levels of PARylated proteins in the chromatin fraction	–	increased the association of PARP1 with the chromatin	differential effects on the recruitment of ARH3 to the chromatin	–	prevented their recruitment	–	significantly increased DNA damage	–	decreased PheRSβ, not PheRSα levels	decreased PheRSβ	caused the accumulation of γ-H2AX and 8-oxo-dG	–	–
N[C@@H](Cc1ccc(O)cc1)C(=O)O [tyrosine, L-tyrosine]	inhibiting histone H3 serine-ADP-ribosylation	–	decreased their interactions	–	–	trapping of PARP1	–	–	–	–	significantly increased DNA damage	–	–	–	resulted in the accumulation	depleted PheRSβ	did not affect the levels of PheRSβ
